Patent US4057644A, “Active derivatives of methylamine in therapeutic compositions and methods of use” (priority 1976, dated 1977)
Read-outs that look alike come from different tables or passages of the source.

Tests used:
[1] = tested on: reserpine-induced catatonia; assay: Inhibition of reserpine-induced catatonia; assay type: in vivo, rat (male, OFA strain); conditions: rat
Method: Ater sufficient doses of reserpine have been administered to the rat, a series of symptoms occur, more particularly ptosis, catatonia and a drop in central temperature. These symptoms are caused by the depletion of the intrangranular reserve pool of biogenetic amines at the synaptic terminals.
An oral dose of the compound to be studied in aqueous solution was administered to batches of 10 male rats of the OFA strain weighing about 150 to 200 g. Thirty minutes later a dose of 5 mg/kg of reserpine was given by intraperitoneal route. Three hours after the injection of reserpine, the animals were suspended by the four paws to a horizontally stretched wire fixed at 15 cm from the ground. The catatonic animals were those which maintained the position so given for at least 30 seconds. […] The maximum score was therefore 10 per batch. An identical trial was undertaken with control animals which received reserpine but none of the compounds being studied.

[2] = tested on: neuroleptic-induced catatonia (prochlorperazine); assay: Inhibition of neuroleptic-induced catatonia; assay type: in vivo, rat (male, OFA strain); conditions: rat, oral; versus amantadine
Method: The blocking of dopaminergic receptors by neuroleptics in the extra-pyramidal system induces catatonia in the rat. Catatonia is differentiated from sedative properties by means of the test used hereabove for reserpine-induced catatonia. The same system of scoring was also employed in the present case.
An oral dose of the compound to be studied in aqueous solution was administered to batches of 10 male rats of the OFA strain weighing about 150 to 200 g.
Three hours after the injection of this latter compound, catatonia was measured. An identical trial was also carried out with control animals which received prochlorperazine but none of the compounds under study.

catalepsy = assay: Inhibition of prochlorperazine-induced catalepsy (crossing of homolateral paws); assay type: in vivo; conditions: Rattus norvegicus, po, 3 h, read-out: dose giving complete inhibition of the catalepsy
Description: […]. These trails involved catalepsy as evidenced by the crossing of the animal's homolateral paws.

[3] = tested on: reserpine-induced catatonia; assay: Suppression of reserpine-induced catatonia (curative treatment); assay type: in vivo, rat (male, OFA strain); conditions: 2.5 and 5 mg/kg oral, versus amantadine 80 mg/kg
Method: Batches of 5 male rats of the OFA strain, weighing 150 to 200 g were given 5 mg/kg of reserpine by intraperitoneal route. One hour and 45 minutes later, namely when the animals were in state of catatonia, an aqueous dose of the compound to be studied was administered by oral route to all the animals with the exception of the control group.
The progress of the catatonia was then noted following the scale used in the tests described hereabove.
The maximum score was thus 5 per batch which means that all the animals of the batch were considered to be still in a state of catatonia.

[4] = tested on: neuroleptic-induced catatonia (prochlorperazine); assay: Suppression of neuroleptic-induced catatonia (curative treatment); assay type: in vivo, rat (male, OFA strain); conditions: 5 mg/kg, versus amantadine 80 mg/kg
Method: Fifty-five minutes later, an oral dose in aqueous solution of the compound to be studied was administered to all the animals with the exception of the control group. The progress of the catatonia was noted following the same scale as that used in the tests described above.

[5] = tested on: isolated duodenum of the rat; assay: MAGNUS test, inhibition of acetylcholine spasm in vitro (cholinolytic/spasmolytic)
Description: This test consists in determining the dose of acetylcholine which, when added to the bath, provokes spasm of the isolated duodenum of the rat. The next step consists in determining the dose of the compound under study which, when added to the bath 30 seconds before the acetylcholine, reduces the spasm.

[6] = tested on: tremorine-induced cholinergic effects; assay: Anti-tremorine test; assay type: in vivo, mice (male, OF1 strain); set-up: key to central cholinergic effects score (normal and provoked tremor): 0: no action; 1: slight action; 2: average action; 3: strong action; 4: very strong action
Method: When injected into mice, tremorine produces peripheral effects i.e. weeping, sweating, salivation and diarrhoea and central effects i.e. tremor and akinesia. Such effects are due to an increase in the amount of intracerebral acetylcholine and serotonine.
Male mice of the OF1 strain weighing about 22 g were divided into batches of 10. […] Thirty minutes later a dose of 10 mg/kg of tremorine was injected by intraperitoneal route and, at different times after this injection, note was taken of the cholinergic effects on each animal in accordance with the following scale: […]

[7] = Spasmolytic activity in vivo; conditions: at doses well below the toxic dose
[8] = Anti-cholinergic (cholinolytic) activity
[9] = J. Amer. Chem. Soc., 71, 3352 (1949); cited from earlier work
[10] = J. Amer. Chem. Soc., 71, 3352 (1949); cited from earlier work; remark: listed apart in the source
[11] = tested on: norepinephrine effects on arterial pressure and nictitating membrane; assay: Influence on peripheral noradrenergic phenomena (arterial pressure, nictitating membrane); conditions: cat; for Contractile reaction of the nictitating membrane with electric stimulation / Contractile reaction of the nictitating membrane without electric stimulation / Increase in arterial pressure after injection of norepinephrine: i.v.
Method: A cat, anaesthetized with pentobarbital, received a sufficient dose of norepinephrine to increase arterial pressure but not sufficient to cause contraction of the nictitating membrane. Arterial pressure was measured at the carotid immediately after administration of the dose of norepinephrine.

CCCC(N)(CCC)CCC [Compound 1]
degree of activity (pharmacological trials) ([1]; in vivo): marked degree of activity
dose of equal activity compared with amantadine (reserpine-induced catatonia) ([1]; oral, versus amantadine): twenty times inferior
activity compared with amantadine (neuroleptic-induced catatonia) [2]: twenty times more active
ED100 (catalepsy): 5 mg/kg
rapidity of suppression of reserpine-induced catatonia [3]: more rapidly
rapidity of action against neuroleptic-induced catatonia [4]: more rapidly
spasmolytic / cholinolytic activity in vitro [5]: virtually non-existent
spasmolytic / cholinolytic activity in vitro ([5]; listed as tri-n-propylmethylamine): very weak, in fact practically non-existent
central cholinergic effects score (normal and provoked tremor) ([6]; 5 mg/kg oral, 20, 30 and 40 minutes after tremorine, printed as identical results): 4
antitremorine properties ([6]; mice, oral): devoid of antitremorine properties
spasmolytic activity in vivo [7]: non-existent
anti-cholinergic (cholinolytic) activity [8]: devoid of anti-cholinergic activity
spasmolytic activity versus the corresponding trialkylethylamines [9]: less spasmolytic
toxicity versus the corresponding trialkylethylamines [10]: more toxic
potentiation of endogenous norepinephrine [11]: does not potentiate
potentiation of exogenous norepinephrine / peripheral adrenergic effects [11]: does not potentiate
Contractile reaction of the nictitating membrane with electric stimulation ([11]; cumulative dose 0.1 mg/kg): 15 mm
Contractile reaction of the nictitating membrane without electric stimulation ([11]; cumulative dose 0.1 mg/kg): 0 mm
Increase in arterial pressure after injection of norepinephrine ([11]; cumulative dose 0.1 mg/kg): 18 mm Hg
Contractile reaction of the nictitating membrane with electric stimulation ([11]; cumulative dose 1 mg/kg): 16 mm
Contractile reaction of the nictitating membrane without electric stimulation ([11]; cumulative dose 1 mg/kg): 0 mm
Increase in arterial pressure after injection of norepinephrine ([11]; cumulative dose 1 mg/kg): 25 mm Hg
Contractile reaction of the nictitating membrane with electric stimulation ([11]; cumulative dose 3 mg/kg): 17 mm
Contractile reaction of the nictitating membrane without electric stimulation ([11]; cumulative dose 3 mg/kg): 0 mm
Increase in arterial pressure after injection of norepinephrine ([11]; cumulative dose 3 mg/kg): 29 mm Hg
Contractile reaction of the nictitating membrane with electric stimulation ([11]; cumulative dose 5 mg/kg): 16 mm
Contractile reaction of the nictitating membrane without electric stimulation ([11]; cumulative dose 5 mg/kg): 0 mm
Increase in arterial pressure after injection of norepinephrine ([11]; cumulative dose 5 mg/kg): 25 mm Hg
Contractile reaction of the nictitating membrane with electric stimulation ([11]; cumulative dose 10 mg/kg): 12 mm
Contractile reaction of the nictitating membrane without electric stimulation ([11]; cumulative dose 10 mg/kg): 0 mm
Increase in arterial pressure after injection of norepinephrine ([11]; cumulative dose 10 mg/kg): 22 mm Hg
potentiation of exogenous norepinephrine / peripheral adrenergic effects ([11]; listed as preferred compound of the invention): does not potentiate the peripheral effects of norepinephrine
